Results published in US20170273307A1, “SILANE-BASED ANTIMICROBIAL COATINGS AND METHODS OF MAKING AND USING THE SAME” (Trent University, priority 2016, published 2017).

Assay: Hydrolysis study of the silane by 1H NMR in D2O
Assay type: physicochemical
Protocol: Hydrolysis of the antimicrobial silanes to activate their surface bonding, an essential step in the coating process, were examined by ^1H NMR in D2O. In a typical experiment, approximately 10 mg of the trimethoxy-hydantoin containing silane was added to D2O and the first was acquired within 2 minutes of the addition. The evolution of methanol with time was measured by acquisition of subsequent incremental spectra on the same sample. Due to the limited solubility of these compounds in water, the amount of methanol hydrolysis product detected, in relation to an internal standard (residual H2O in D2O) was used.
Hydrolysis of the modified alkyloxysilanes is important for their reactivity and adhesion to surfaces. Knowing the rate of hydrolysis allows control over the mixing time and catalyst/acid content required before a coating will optimally bind to a substrate. To better understand the mechanisms of hydrolysis, a simple method of placing the silane in a solvent, such as D2O (deuterated water), and look for a characteristic methanol peak in NMR analysis, which will occur when the methanol is cleaved off by the hydrolysis from the D2O. […] After 2 minutes (the fastest the sample could be analyzed on NMR after mixing), a sharp, distinct methanol peak appears at 3.34 ppm (FIG. 4).

- solubility in D2O (approximately 10 mg in D2O): not completely soluble
- integration value of methanol peak (3.34 ppm) compared with D2O set as 1 (in D2O, after 2 minutes): 0.24
- time to plateau of methanol peak integration (in D2O, spectra recorded every 2 minutes): 10 min
- time to nearly complete hydrolysis (in D2O, uncatalysed, methanol release by 1H NMR): less than 2 minutes
Structure (SMILES): CO[Si](CCCn1cc(CN2C(=O)NC(C)(C)C2=O)nn1)(OC)OC [the silane]
